From patent publication US20240417390A1, “HYDROGEN SULFATE SALT OF A BCL-2 INHIBITOR, RELATED CRYSTALLINE FORM, METHOD FOR PREPARING THE SAME AND PHARMACEUTICAL COMPOSITIONS CONTAINING THE SAME” (LES LABORATOIRES SERVIER, priority 2018, published 2024)

Test: Solubility in water
Format: physicochemical
Details: free base
Method: Although Compound A is a very promising drug, it is a difficult compound to formulate. In particular, it is […] in water (<0.01 mg/ml for the free base). […] In addition, different polymorphs can have different rates of uptake in the body, leading to lower or higher biological activity than desired. In extreme cases, an undesired polymorph can even show toxicity. […] However, even though polymorphism has been a subject for intensive investigations, understanding and controlling this phenomenon represents a substantial scientific challenge. It is hard to predict whether a given molecule will crystallize in one or several crystal forms, and to find conditions leading to such crystallization.

solubility: < 10 µg/mL
Compound: Cc1c(N(C(=O)c2cc(-c3cc(Cl)ccc3C(=O)N3Cc4ccccc4C[C@H]3CN3CCOCC3)n(C)c2C)c2ccc(O)cc2)cc(C#N)n1C [Compound A, 5-(5-chloro-2-{[(3S)-3-(morpholin-4-ylmethyl)-3,4-dihydroisoquinolin-2(1H)-yl]carbonyl}phenyl)-N-(5-cyano-1,2-dimethyl-1H-pyrrol-3-yl)-N-(4-hydroxyphenyl)-1,2-dimethyl-1H-pyrrole-3-carboxamide]
